Source: article PMC8959960, “Inhibition of Aldose Reductase by Novel Phytocompounds: A Heuristic Approach to Treating Diabetic Retinopathy” (Evidence-based Complementary and Alternative Medicine : eCAM, 2022)

Columns and labels:
human lens ALR2 = molecular target: T1, human lens ALR2 (Homo sapiens, UniProt P15121); test: ALR2 inhibition in human lens samples (NADPH decrease at 340 nm); assay type: biochemical; conditions: crude ALR2 from diabetic human lens, DL-glyceraldehyde substrate, 37°C, pH 7.0; means ± SD, n = 3
T1 construct: Crude ALR2 enzyme extract was prepared by homogenizing from 100 mg of diabetic and nondiabetic human lenses; from tissue; host or cells: human lens (Rotary Aravind International Eye Bank)
Protocol: Hayman and Kinoshita method of crude ALR2 enzyme preparation was followed. Five diabetic and nondiabetic human lenses, aged 58 to 65 years, were obtained from the Rotary Aravind International Eye Bank, Aravind Eye Hospital, Madurai. […] The nondiabetic human lens was used as the control. The lens homogenate was centrifuged at 10,000 rpm for 30 minutes, and the resulting crude ALR2 enzyme preparation was used for analysis.
The 300 μl reaction mixture consisted of 100 mM sodium phosphate buffer adjusted to pH 7.0, 0.2 mM Li2SO4, 5 mM 2-mercaptoethanol, 0.15 mM NADPH, and 100 μg crude enzyme preparation, and the substrate DL-glyceraldehyde was added to initiate the reaction. ALR2 activity was assayed spectrophotometrically by measuring the decrease in the absorption of NADPH at 340 nm per unit time at 37°C and pH 7.0.
The percentage inhibition of ALR2 was calculated using the following formula:(3) % inhibition=ΔAbsorbance of sample/min−ΔAbsorbance blank/min/ΔAbsorbance of control/min−ΔAbsorbance blank/min×100.

ALR2 in ARPE-19 cells = molecular target: T2, ALR2 in ARPE-19 cells (Homo sapiens, UniProt P15121); test: Inhibition of ALR2 in ARPE-19 cells; assay type: cell-based; conditions: normoglycemic (5 mM glucose) ARPE-19 cells, 24 hr, each compound at its human lens IC50 concentration
T2 construct: The cell lysate was collected for analysis; endogenous in cells; host or cells: ARPE-19
Protocol: The cells were shifted to DMEM-low glucose with 10% FBS, 12 hr before the experiment. The cells were washed with PBS and incubated in FBS-free medium and 5 mM/25 mM (normoglycemic condition/hyperglycemic condition) glucose, for 24 hr, with or without the drug. Following the drug treatment, the cells were washed with ice cold PBS, trypsinized, and counted. Cells were resuspended in ALR assay buffer, homogenized for 30 seconds, and centrifuged at 10000 rpm for 30 minutes. The cell lysate was collected for analysis.
ALR2 inhibition protocol by Hayman and Kinoshita was followed.

ARPE-19 cells = test: MTT cell toxicity assay; assay type: cell-based, human; conditions: 24 hr treatment
Protocol: The cell toxicity of the shortlisted ARIs was assessed using MTT assay kit (in vitro toxicological assay kit, Sigma, USA). ARPE-19 cells were grown to confluence in DMEM/F12 medium with 10% FBS, harvested by trypsinization, and plated at 1 × 10^4 cells per well in a 96-well plate. The medium was replaced with serum-free medium without FBS for 3 hr before the drug treatment. Following serum starvation, ARPE-19 cells were treated with different concentrations of the identified compounds. […] The cells were treated with the lead compounds for 24 hr to determine the cytotoxicity of the compounds. After incubation, the cells were treated with 20 μl of 5 mg/ml MTT and incubated for 3 hr at 37°C to determine the cell toxicity. The viable cells converted MTT into formazan crystals which were dissolved using solubilization solution (200 μl) and measured spectrophotometrically at 570 nm with subtraction of the reference wavelength, 650 nm, to eliminate the possibility of variations in the plate and the media present, using SpectraMax M3 multiplate reader (Molecular Devices, California, USA).

ALR2 = conditions: high glucose condition; cited from earlier work

| IC50 (human lens ALR2) | ALR2 inhibition (%) (ALR2 in ARPE-19 cells) | Compound | concentration below which no toxicity was shown (ARPE-19 cells) | ALR2 inhibition (ALR2) |
| --- | --- | --- | --- | --- |
| 0.108 µM | 98% | COc1cc(O)c2c(=O)cc(-c3ccccc3)oc2c1OC [7-O-Methylwogonin] |  |  |
| 0.0224 µM | 100% | O=C(OCC1=C[C@@H](O)[C@@H]2C=CO[C@@H](O[C@@H]3O[C@H](CO)[C@@H](O)[C@H](O)[C@H]3O)[C@H]12)c1ccc(O)cc1 [Agnuside] | below 5 μM |  |
| 0.0273 µM | 65% | COc1cc2oc(-c3ccc(O)cc3)c(O[C@@H]3O[C@H](CO)[C@H](O)[C@H](O)[C@H]3O)c(=O)c2c(O)c1OC [Eupalitin-3-O-galactoside] |  |  |

| Compound | IC50 (human lens ALR2) | ALR2 inhibition (%) (ALR2 in ARPE-19 cells) | concentration below which no toxicity was shown (ARPE-19 cells) | ALR2 inhibition (ALR2) |
| --- | --- | --- | --- | --- |
| CC(/C=C1\SC(=S)N(CC(=O)O)C1=O)=C\c1ccccc1 [Epalrestat, reference compound] |  | 85% | below 5 μM | 65% |
| COc1cc(C(=O)O[C@H]2[C@@H]3C=CO[C@@H](O[C@@H]4O[C@H](CO)[C@@H](O)[C@H](O)[C@H]4O)[C@@H]3[C@@]3(CO)O[C@@H]23)ccc1O [Picroside II] | 0.13 µM | 71% |  |  |
